Patent US7902249B2, “Indole derivatives substituted with long-chain alcohols and medicaments containing them” (Meiji Dairies Corporation, priority 2002, dated 2011)
“Also recorded” adds a separate entry of the source.

How the values were obtained:
human blood cells = assay: Preventive effect on hemolysis in human blood cells induced by free radicals; assay type: cell-based; conditions: compared with control group (FIG. 2)
Protocol: An experiment was conducted in accordance with the method of D. Blache. FASEB J. et al. (E. Bourdon, N. Loreau & D. Blache. FABES J. “Glucose and free radicals impair the antioxidant properties of serum albumin”, 13, 233-244(1999)). The time required for 50% hemolysis (HT50) was measured and the extension of the time required for HT50 compared with that of a control group was plotted on a graph. In this experiment, Vitamin E was employed as a positive control.

[1] = system: Fetal rat neurons in primary cultures; assay: Effect on neurite outgrowth and neuron survival; assay type: cell-based; conditions: 10^−6 and 10^−7 M, incubation for 3 days, versus control group (FIG. 1)
Protocol: This experiment was conducted in accordance with the method of Luu, et al. (C. Girlanda-Junges, F. Keyling-Bilger, G. Schemitt & B. Luu, “Effect of Cyclohexenonic Long Chain Fatty Alcohols on Neurite Outgrowth. Study on Structure-Activity Relationship”, Tetrahedron, 54, 7735-77481998)). Fetal rat neurons in primary cultures were treated with Compound 1 at the concentrations of 10^−6 and 10^−7 M, followed by incubation for 3 days.

[2] = system: Human neuroblastoma cells, Lan-1; assay: Induction of proliferation, differentiation and apoptosis of neuroblastoma cells; assay type: cell-based; set-up: key to Apoptosis / Proliferation / Differentiation: ++++: Extremely strongly stimulated (reinforced).; +++: Very strongly stimulated (reinforced).; ++: Strongly stimulated (reinforced).; +: Stimulated (reinforced).; +/−: No change.; −: Decreased (weakened); conditions: for effects on induction of differentiation or apoptosis versus proliferation: Lan-1 cells, summary of Table 1
Description: Human neuroblastoma cells, Lan-1 (Lan-1: a human neuroblastoma cell line with M1 and M2 muscarinic receptors conjugated with intracellular Ca^2+) were used to investigate the effects of the present compounds on the induction of proliferation, differentiation and apoptosis.

SMILES	extension of the time required for 50% hemolysis (HT50) (human blood cells)	Apoptosis ([2]; Day 1, 0.1 μM)	Differentiation ([2]; Day 1, 0.1 μM)	Proliferation ([2]; Day 1, 0.1 μM)	Apoptosis ([2]; Day 1, 10 μM)	Differentiation ([2]; Day 1, 10 μM)	Proliferation ([2]; Day 1, 10 μM)	Apoptosis ([2]; Day 1, 100 μM)	Differentiation ([2]; Day 1, 100 μM)	Proliferation ([2]; Day 1, 100 μM)	Apoptosis ([2]; Day 2, 0.1 μM)	Differentiation ([2]; Day 2, 0.1 μM)	Proliferation ([2]; Day 2, 0.1 μM)	Apoptosis ([2]; Day 2, 10 μM)	Differentiation ([2]; Day 2, 10 μM)	Proliferation ([2]; Day 2, 10 μM)	Apoptosis ([2]; Day 2, 100 μM)	Differentiation ([2]; Day 2, 100 μM)	Proliferation ([2]; Day 2, 100 μM)	Apoptosis ([2]; Day 5, 0.1 μM)	also measured
OCCCCCCCCCCCCCCCCc1c[nH]c2ccccc12 [Compound 1, 3-(16-hydroxyhexadecyl)indole]	extended HT50	−	+/−	+	+/−	++	+	+	+++	+/−	−	+/−	++	+/−	+++	+	+	++++	−	−	melting point: 79 to 80 °C; proportion of the neurons with neurites of 50 μm or longer [1]: higher in the treated group than in the control group; Differentiation ([2]; Day 5, 0.1 μM): +/−; Proliferation ([2]; Day 5, 0.1 μM): +/−; Apoptosis ([2]; Day 5, 10 μM): ++; Differentiation ([2]; Day 5, 10 μM): +++; Proliferation ([2]; Day 5, 10 μM): +/−; Apoptosis ([2]; Day 5, 100 μM): +++; Differentiation ([2]; Day 5, 100 μM): +; Proliferation ([2]; Day 5, 100 μM): −; Apoptosis ([2]; Day 7, 0.1 μM): +/−; Differentiation ([2]; Day 7, 0.1 μM): +; Proliferation ([2]; Day 7, 0.1 μM): +/−; Apoptosis ([2]; Day 7, 10 μM): ++; Differentiation ([2]; Day 7, 10 μM): ++++; Proliferation ([2]; Day 7, 10 μM): +/−; Apoptosis ([2]; Day 7, 100 μM): +++; Differentiation ([2]; Day 7, 100 μM): ++; Proliferation ([2]; Day 7, 100 μM): −; effects on induction of differentiation or apoptosis versus proliferation [2]: stronger effects on induction of differentiation or apoptosis of neuroblastoma cells rather than on proliferation
OCCc1c[nH]c2ccccc12 [Compound 2, 3-(2-hydroxyethyl)indole]	extended HT50																				
OCCCCCCCCCCCc1c[nH]c2ccccc12 [Compound 4, 3-(11-hydroxyundecyl)indole]	extended HT50; also recorded: strong effect	−	−	++	−	++	+	+++	+	+/−	−	+	+	+	++	+/−	+++	−	−	−	Differentiation ([2]; Day 5, 0.1 μM): +/−; Proliferation ([2]; Day 5, 0.1 μM): +/−; Apoptosis ([2]; Day 5, 10 μM): −; Differentiation ([2]; Day 5, 10 μM): ++; Proliferation ([2]; Day 5, 10 μM): +/−; Apoptosis ([2]; Day 5, 100 μM): +; Differentiation ([2]; Day 5, 100 μM): ++++; Proliferation ([2]; Day 5, 100 μM): +; Apoptosis ([2]; Day 7, 0.1 μM): −; Differentiation ([2]; Day 7, 0.1 μM): +/−; Proliferation ([2]; Day 7, 0.1 μM): ++; Apoptosis ([2]; Day 7, 10 μM): +/−; Differentiation ([2]; Day 7, 10 μM): ++; Proliferation ([2]; Day 7, 10 μM): +/−; Apoptosis ([2]; Day 7, 100 μM): ++++; effects on induction of differentiation or apoptosis versus proliferation [2]: stronger effects on induction of differentiation or apoptosis of neuroblastoma cells rather than on proliferation
OCCCCCCCCCCc1c[nH]c2ccccc12 [Compound 3, 3-(10-hydroxydecyl)indole]		−	+	+	−	+++	+/−	++	+	−	−	+	+	+	++	+/−	++	+	+/−	+/−	Differentiation ([2]; Day 5, 0.1 μM): −; Proliferation ([2]; Day 5, 0.1 μM): +; Apoptosis ([2]; Day 5, 10 μM): +; Differentiation ([2]; Day 5, 10 μM): ++; Proliferation ([2]; Day 5, 10 μM): +/−; Apoptosis ([2]; Day 5, 100 μM): ++; Differentiation ([2]; Day 5, 100 μM): +++; Proliferation ([2]; Day 5, 100 μM): +/−; Apoptosis ([2]; Day 7, 0.1 μM): +/−; Differentiation ([2]; Day 7, 0.1 μM): +/−; Proliferation ([2]; Day 7, 0.1 μM): ++; Apoptosis ([2]; Day 7, 10 μM): +; Differentiation ([2]; Day 7, 10 μM): +++; Proliferation ([2]; Day 7, 10 μM): +/−; Apoptosis ([2]; Day 7, 100 μM): ++++; effects on induction of differentiation or apoptosis versus proliferation [2]: stronger effects on induction of differentiation or apoptosis of neuroblastoma cells rather than on proliferation
